Inconclusive results and toxic doses are left out. Rule as the data show it: active = T/C of 150% or more; inactive = T/C below 125%.
Tested on: L1210 leukemia ip in BDF1 mice, survival T/C
Assay: NCI In Vivo Anticancer Drug Screen. Data for tumor model L1210 Leukemia (intraperitoneal) in B6D2F1 (BDF1) mice
Settings: endpoint: mean survival time, higher = longer survival
Procedure, shortened: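 Read-out is survival time, reported as the treated-group measurement over the vehicle-control measurement.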

[1] = dose: 100.0 mg/kg/injection, schedule: Q04DX003 (ip), vehicle: Klucel (hydroxypropylcellulose) (HPC)
[2] = dose: 200.0 mg/kg/injection, schedule: Q04DX003 (ip), vehicle: Klucel (hydroxypropylcellulose) (HPC)
[3] = dose: 100.0 mg/kg/injection, schedule: Q04DX003 (ip), vehicle: saline with Tween-80
[4] = dose: 200.0 mg/kg/injection, schedule: Q04DX003 (ip), vehicle: saline with Tween-80
[5] = dose: 400.0 mg/kg/injection, schedule: Q04DX003 (ip), vehicle: saline with Tween-80
[6] = dose: 50.0 mg/kg/injection, schedule: Q01DX009 (ip), vehicle: saline with Tween-80
[7] = dose: 100.0 mg/kg/injection, schedule: Q01DX009 (ip), vehicle: saline with Tween-80
[8] = dose: 200.0 mg/kg/injection, schedule: Q01DX009 (ip), vehicle: saline with Tween-80
[9] = dose: 100.0 mg/kg/injection, schedule: Q01DX001 (ip), vehicle: saline
[10] = dose: 200.0 mg/kg/injection, schedule: Q01DX001 (ip), vehicle: saline
[11] = dose: 400.0 mg/kg/injection, schedule: Q01DX001 (ip), vehicle: saline
[12] = dose: 75.0 mg/kg/injection, schedule: Q01DX001 (ip), vehicle: saline
[13] = dose: 150.0 mg/kg/injection, schedule: Q01DX001 (ip), vehicle: saline

Measured: T/C

CN(CCOS(C)(=O)=O)CCOS(C)(=O)=O
inactive: dose: 0.1 mg/kg/injection, schedule: Q01DX009 (ip), vehicle: saline 123 % of control | dose: 0.17 mg/kg/injection, schedule: Q01DX009 (ip), vehicle: saline 118 % of control | dose: 0.26 mg/kg/injection, schedule: Q01DX009 (ip), vehicle: saline 122 % of control | dose: 0.28 mg/kg/injection, schedule: Q01DX001 (ip), vehicle: saline 110 % of control | dose: 0.4 mg/kg/injection, schedule: Q01DX001 (ip), vehicle: saline 115 % of control | dose: 0.44 mg/kg/injection, schedule: Q01DX001 (ip), vehicle: saline 121 % of control | dose: 0.66 mg/kg/injection, schedule: Q01DX009 (ip), vehicle: saline 101 % of control | dose: 1.0 mg/kg/injection, schedule: Q01DX009 (ip), vehicle: saline 109 % of control | dose: 1.5 mg/kg/injection, schedule: Q01DX009 (ip), vehicle: saline 88 % of control | dose: 1.6 mg/kg/injection, schedule: Q01DX009 (ip), vehicle: saline 92 % of control | dose: 4.5 mg/kg/injection, schedule: Q01DX001 (ip), vehicle: saline 104 % of control | dose: 38.0 micrograms/kg/injection, schedule: Q01DX009 (ip), vehicle: saline 113 % of control | dose: 58.0 micrograms/kg/injection, schedule: Q01DX009 (ip), vehicle: saline 123 % of control | dose: 88.0 micrograms/kg/injection, schedule: Q01DX009 (ip), vehicle: saline 115 % of control | dose: 200.0 micrograms/kg/injection, schedule: Q01DX009 (ip), vehicle: saline 90 % of control
active: dose: 0.2 mg/kg/injection, schedule: Q01DX009 (ip), vehicle: saline 161 % of control | dose: 0.4 mg/kg/injection, schedule: Q01DX009 (ip), vehicle: saline 183 % of control | dose: 0.8 mg/kg/injection, schedule: Q01DX009 (ip), vehicle: saline 163 % of control | dose: 2.25 mg/kg/injection, schedule: Q01DX001 (ip), vehicle: saline 156 % of control | dose: 132.0 micrograms/kg/injection, schedule: Q01DX009 (ip), vehicle: saline 151 % of control

CC(=O)C(N=Nc1nn[nH]n1)C(C)=O
inactive: dose: 100.0 mg/kg/injection, schedule: Q04DX003 (ip), vehicle: saline 104 % of control | dose: 200.0 mg/kg/injection, schedule: Q04DX003 (ip), vehicle: saline 93 % of control | dose: 400.0 mg/kg/injection, schedule: Q04DX003 (ip), vehicle: saline 96 % of control

CC1(CO)CC2C=CC1C2 (stereo not drawn)
inactive: dose: 100.0 mg/kg/injection, schedule: Q04DX002 (ip), vehicle: saline with Tween-80 99 % of control | dose: 200.0 mg/kg/injection, schedule: Q04DX002 (ip), vehicle: saline with Tween-80 99 % of control | dose: 400.0 mg/kg/injection, schedule: Q04DX002 (ip), vehicle: saline with Tween-80 99 % of control

O=S(=O)(Cc1ccccc1)CC(Cl)c1ccccc1 (stereo not drawn)
inactive: dose: 100.0 mg/kg/injection, schedule: Q01DX001 (ip), vehicle: Klucel (hydroxypropylcellulose) (HPC) 98 % of control | [1] 97 % of control | dose: 200.0 mg/kg/injection, schedule: Q01DX001 (ip), vehicle: Klucel (hydroxypropylcellulose) (HPC) 98 % of control | [2] 101 % of control | dose: 400.0 mg/kg/injection, schedule: Q01DX001 (ip), vehicle: Klucel (hydroxypropylcellulose) (HPC) 104 % of control | dose: 400.0 mg/kg/injection, schedule: Q04DX003 (ip), vehicle: Klucel (hydroxypropylcellulose) (HPC) 92 % of control

N#CCCN(CCC#N)C(=O)Nc1cccc(Cl)c1
inactive: [3] 98 % of control | [4] 88 % of control | [5] 91 % of control

COc1ccc(CCN2COc3ccc4ccc(=O)oc4c3C2)cc1OC
inactive: dose: 100.0 mg/kg/injection, schedule: Q04DX003 (ip), vehicle: saline sonified 111 % of control | dose: 200.0 mg/kg/injection, schedule: Q04DX003 (ip), vehicle: saline sonified 111 % of control | dose: 400.0 mg/kg/injection, schedule: Q04DX003 (ip), vehicle: saline sonified 106 % of control

O=C(O)CSCCCc1ccccc1
inactive: [6] 101 % of control | [7] 95 % of control | [3] 102 % of control | [8] 101 % of control | [4] 102 % of control | [5] 102 % of control

CC1CCCCC1O (stereo not drawn)
inactive: [7] 102 % of control | [8] 92 % of control

O=C(Nc1cccc(O)c1)Nc1cccc(Cl)c1Cl
inactive: [7] 91 % of control | [8] 92 % of control | dose: 400.0 mg/kg/injection, schedule: Q01DX009 (ip), vehicle: saline with Tween-80 94 % of control

Cc1ccc(N=Cc2cc([N+](=O)[O-])ccc2O)cc1
inactive: dose: 87.5 mg/kg/injection, schedule: Q04DX003 (ip), vehicle: Klucel (hydroxypropylcellulose) (HPC) 102 % of control | dose: 175.0 mg/kg/injection, schedule: Q04DX003 (ip), vehicle: Klucel (hydroxypropylcellulose) (HPC) 92 % of control | dose: 350.0 mg/kg/injection, schedule: Q04DX003 (ip), vehicle: Klucel (hydroxypropylcellulose) (HPC) 97 % of control

CCOC(=O)c1ccc(N(CC(O)CN)S(=O)(=O)c2ccc(C)cc2)cc1 (stereo not drawn)
inactive: dose: 25.0 mg/kg/injection, schedule: Q01DX009 (ip), vehicle: saline with Tween-80 100 % of control | [6] 95 % of control

C=CCCCCCCCCCC
inactive: dose: 50.0 mg/kg/injection, schedule: Q04DX003 (ip), vehicle: Klucel (hydroxypropylcellulose) (HPC) 97 % of control | [9] 98 % of control | [1] 95 % of control | [10] 101 % of control | [2] 97 % of control | [11] 96 % of control

O=C(Nc1cccc([N+](=O)[O-])c1)N1CCCC1
inactive: dose: 100.0 mg/kg/injection, schedule: Q01DX001 (ip), vehicle: carboxymethylcellulose (CMC) 98 % of control | dose: 200.0 mg/kg/injection, schedule: Q01DX001 (ip), vehicle: carboxymethylcellulose (CMC) 102 % of control | dose: 400.0 mg/kg/injection, schedule: Q01DX001 (ip), vehicle: carboxymethylcellulose (CMC) 100 % of control

CN(C)c1nc(N)nc2c1nc(Cl)n2C1OC(CO)C(O)C1O (stereo not drawn)
inactive: [9] 97 % of control | [10] 94 % of control | [11] 105 % of control

CCCCCCCCCCCCSC1=CC(=O)C=CC1=O
inactive: dose: 5.0 mg/kg/injection, schedule: Q01DX001 (ip), vehicle: saline 101 % of control | dose: 10.0 mg/kg/injection, schedule: Q01DX001 (ip), vehicle: saline 108 % of control | dose: 20.0 mg/kg/injection, schedule: Q01DX001 (ip), vehicle: saline 97 % of control | dose: 40.0 mg/kg/injection, schedule: Q01DX001 (ip), vehicle: saline 112 % of control | dose: 80.0 mg/kg/injection, schedule: Q01DX001 (ip), vehicle: saline 112 % of control

O=Nc1ccc(O)c2ncccc12
inactive: [1] 92 % of control | [2] 99 % of control

O=C(CCCCC(=O)c1ccc(O)cc1O)c1ccc(O)cc1O
inactive: dose: 100.0 mg/kg/injection, schedule: Q01DX001 (ip), vehicle: other 97 % of control | dose: 100.0 mg/kg/injection, schedule: Q04DX003 (ip), vehicle: other 103 % of control | dose: 200.0 mg/kg/injection, schedule: Q01DX001 (ip), vehicle: other 95 % of control | dose: 200.0 mg/kg/injection, schedule: Q04DX003 (ip), vehicle: other 100 % of control | dose: 400.0 mg/kg/injection, schedule: Q01DX001 (ip), vehicle: other 97 % of control | dose: 400.0 mg/kg/injection, schedule: Q04DX003 (ip), vehicle: other 106 % of control

CCNCCCNCC
inactive: [12] 100 % of control | [13] 93 % of control

Cc1c(O)cc2c(c1O)C(=O)CC(c1ccc(O)cc1)O2 (stereo not drawn)
inactive: dose: 100.0 mg/kg/injection, schedule: Q04DX002 (ip), vehicle: Klucel (hydroxypropylcellulose) (HPC) 91 % of control | dose: 200.0 mg/kg/injection, schedule: Q04DX002 (ip), vehicle: Klucel (hydroxypropylcellulose) (HPC) 87 % of control | dose: 400.0 mg/kg/injection, schedule: Q04DX002 (ip), vehicle: Klucel (hydroxypropylcellulose) (HPC) 108 % of control

CC1C(=O)OC2C1CCC1(C)C3(C)C(=O)C=CC213 (stereo not drawn)
inactive: [12] 97 % of control | [13] 106 % of control | dose: 300.0 mg/kg/injection, schedule: Q01DX001 (ip), vehicle: saline 95 % of control

CCN(C)CCC(C=O)(c1cccc2ccccc12)C(C)C (stereo not drawn)
inactive: dose: 100.0 mg/kg/injection, schedule: Q04DX002 (ip), vehicle: saline 100 % of control

Reference: PubChem BioAssay AID248 (DTP/NCI, 2004)
